The values below come from patent publication US9315475B2 (MERCK SHARP & DOHME CORP., priority 2011, dated 2016).

For experiment [1], the system named is HIV-1 (H9IIIB strain). The experiment is described as follows: Antiviral acute infection assay in cell culture (Spread). The format is cell-based. The settings on record: Human immunodeficiency virus 1, T-lymphoid, HIV-1 H9IIIB infection of MT-4 human T-lymphoid cells in 10% FBS; mean of at least two independent experiments. The text has this:
Antiviral Assays in Cell Culture (“Spread”)
Acute Infection Assay (“Spread”) data were generated using HIV-1 (H9IIIB strain) infection of MT-4 human T-lymphoid cells in 10% FBS, and according to the methods disclosed by J. P. Vacca et al, “L-735,524: An orally bioavailable human immunodeficiency virus type 1 protease inhibitor,” Proc. Natl. Acad. Sci. USA, Vol. 91, pp. 4096-4100 (April 1994).

Experiment [2] deals with T1, wildtype HIV-1 protease (Human immunodeficiency virus type 1 group M subtype B, UniProt P04585).
T1 construct: the wildtype HIV-1 protease (which was expressed in Escherichia coli); made in house; host or cells: Escherichia coli
Briefly: Assay for inhibition of microbial expressed HIV protease (Pepcleav). The experiment is classed as biochemical. The settings on record: wild type HIV-1 protease expressed in E. coli, peptide substrate, pH 5.5; mean of at least two independent experiments; read-out: Pepcleav. The gist of the method:
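E. coli-expressed wild-type HIV-1 protease (20 pM) preincubated 30 min at room temperature with inhibitor in pH 5.5 sodium acetate/NaCl/BSA buffer, then 400 μM Val-Ser-Gln-Asn-(βnaphthyl)Ala-Pro-Ile-Val added for 1 h at 30 °C. Quenched with formic acid; product quantified by LC-MS/MS peak area, indinavir internal standard.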

Take `N[C@H](C(=O)Nc1cncc(F)c1CC[C@@H]1CN[C@H](COC(=O)NCC(F)(F)F)CO1)[C@H](c1ccc(F)cc1)c1ccc(OC(F)(F)F)cc1` [Example 246, (βS)-β-(4-fluorophenyl)-N-(5-fluoro-4-{2-[(2R,5S)-5-({[(2,2,2-trifluoroethyl)carbamoyl]oxy}methyl)morpholin-2-yl]ethyl}pyridin-3-yl)-O-(trifluoromethyl)-L-tyrosinamide]: a half-maximal response in experiment [1] (EC50) required 390 nM. In experiment [2], the IC50 came out at 13 nM.
With `CN[C@H](C(=O)Nc1cncc(F)c1CC[C@@H]1CN[C@H](COC(=O)NCC(F)(F)F)CO1)C(c1ccc(F)cc1)c1ccc(F)cc1` [Example 202, 4-fluoro-β-(4-fluorophenyl)-N-(5-fluoro-4-{2-[(2R,5S)-5-({[(2,2,2-trifluoroethyl)carbamoyl]oxy}methyl)morpholin-2-yl]ethyl}pyridin-3-yl)-Nα-methyl-L-phenylalaninamide], the EC50 in experiment [1] stood at 65 nM. Moreover, the IC50 in experiment [2] worked out at 28 nM.
The matching figures for `O=C(C[C@@H](c1ccc(F)cc1)c1cc(F)cc(F)c1)Nc1cccc(F)c1CC[C@@H]1CN[C@H](COC(=O)NCC(F)(F)F)CO1` [Example 147, {(3S,6R)-6-[2-(2-{[(3S)-3-(3,5-difluorophenyl)-3-(4-fluorophenyl)propanoyl]amino}-6-fluorophenyl)ethyl]morpholin-3-yl} methyl (2,2,2-trifluoroethyl)carbamate]: 120 nM and 4.9 nM.
For `N[C@H](C(=O)Nc1cccc(F)c1OC[C@@H]1CN[C@H](COC(=O)NCC(F)(F)F)CO1)C(c1ccc(F)cc1)c1ccc(F)cc1` [Example 82, ((3S,6S)-6-((2-((S)-2-amino-3,3-bis(4-fluorophenyl)propanamido)-6-fluorophenoxy)methyl)morpholin-3-yl)methyl (2,2,2-trifluoroethyl)carbamate], in that order: 40 nM and 11 nM.
For the compound `COC(=O)N[C@H](C(=O)Nc1cccc(F)c1CC[C@@H]1CN[C@H](COC(=O)NCC(F)(F)F)CO1)[C@H](c1ccccc1)c1ccc(F)c(F)c1` [Example 294, (βR)-β-(3,4-difluorophenyl)-N-(3-fluoro-2-{2-[(2R,5S)-5-({[(2,2,2-trifluoroethyl)carbamoyl]oxy}methyl)morpholin-2-yl]ethyl}phenyl)-Nα-(methoxycarbonyl)-L-phenylalaninamide], it took 14 nM to reach a half-maximal effect in experiment [1] (EC50). In experiment [2], the IC50 is 3.8 nM.
For `N[C@H](C(=O)Nc1cncc(F)c1CC[C@@H]1CN[C@H](COC(=O)NC(CC(F)(F)F)c2ccc(F)cc2)CO1)C(c1ccc(F)cc1)c1ccc(F)cc1` (stereo partly drawn) [Example 276, 4-fluoro-β-(4-fluorophenyl)-N-[5-fluoro-4-(2-{(2R,5S)-5-[({[3,3,3-trifluoro-1-(4-fluorophenyl)propyl]carbamoyl}oxy)methyl]morpholin-2-yl}ethyl)pyridin-3-yl]-L-phenylalaninamide], in that order: 28 nM and 0.2 nM.
The matching figures for `N[C@H](C(=O)Nc1cc(F)cc(F)c1CC[C@@H]1CN[C@H](COC(=O)NCC(F)(F)F)CO1)C(c1ccc(F)cc1)c1ccc(F)cc1` [Example 247, N-(3,5-difluoro-2-{2-[(2R,5S)-5-({[(2,2,2-trifluoroethyl)carbamoyl]oxy}methyl)morpholin-2-yl]ethyl}phenyl)-4-fluoro-β-(4-fluorophenyl)-L-phenylalaninamide]: 260 nM and 12 nM.
For `COC(=O)N[C@H](C(=O)Nc1cncc(F)c1CC[C@@H]1CN[C@H](COC(=O)NCC(F)(F)F)CO1)[C@@H](c1ccc(F)cc1)c1cc(F)ccc1F` [Example 300, (βS)-2,5-difluoro-β-(4-fluorophenyl)-N-(5-fluoro-4-{2-[(2R,5S)-5-({[(2,2,2-trifluoroethyl)carbamoyl]oxy}methyl)morpholin-2-yl]ethyl}pyridin-3-yl)-Nα-(methoxycarbonyl)-L-phenylalaninamide], in that order: 18 nM and 1.6 nM.
On to `N[C@H](C(=O)Nc1cncc(F)c1CC[C@@H]1CN[C@H](COC(=O)NCC(F)(F)F)CO1)[C@H](c1ccc(F)cc1)c1ccc(Cl)cc1` [Example 267, (βR)-β-(4-chlorophenyl)-4-fluoro-N-(5-fluoro-4-{2-[(2R,5S)-5-({[(2,2,2-trifluoroethyl)carbamoyl]oxy}methyl)morpholin-2-yl]ethyl}pyridin-3-yl)-L-phenylalaninamide], for which the EC50 in experiment [1] worked out at 51 nM. In experiment [2], the IC50 came out at 3.1 nM.
For `COC(=O)N[C@H](C(=O)Nc1cccc(F)c1CC[C@@H]1CN[C@H](COC(=O)NCC(C)(C)O)CO1)C(c1ccc(F)cc1)c1ccc(F)cc1` [Example 121, 4-Fluoro-N-(3-fluoro-2-{2-[(2R,5S)-5-({[(2-hydroxy-2-methylpropyl)carbamoyl]oxy}methyl)morpholin-2-yl]ethyl}phenyl)-β-(4-fluorophenyl)-Nα-(methoxycarbonyl)-L-phenylalaninamide], in that order: 10 nM and 2.5 nM.
In turn, `N[C@H](C(=O)Nc1cncc(F)c1CC[C@@H]1CN[C@H](COC(=O)NCC(F)(F)F)CO1)[C@H](c1ccc(F)cc1)c1ccc2ccccc2c1` [Example 96, (βR)-4-Fluoro-N-(5-fluoro-4-{2-[(2R,5S)-5-({[(2,2,2-trifluoroethyl)carbamoyl]oxy}methyl)morpholin-2-yl]ethyl}pyridin-3-yl)-β-naphthalen-2-yl-L-phenylalaninamide] gave an EC50 in experiment [1] of 73 nM. In experiment [2], the IC50 was found to be 9.9 nM.
As to `O=C(CC(c1ccc(F)cc1)c1ccc(F)cc1)Nc1cncc(F)c1CC[C@@H]1CN[C@H](COC(=O)NC(CO)C(F)(F)F)CO1` (stereo partly drawn) [Example 167, {(3S,6R)-6-[2-(3-{[3,3-bis(4-fluoro-phenyl)propanoyl]amino}-5-fluoropyridin-4-yl)ethyl]morpholin-3-yl}methyl [2,2,2-trifluoro-1-(hydroxymethyl)ethyl] carbamate], a half-maximal effect in experiment [1] (EC50) was put at 1250 nM. Further, the IC50 in experiment [2] was 1.5 nM.
In the case of `N#Cc1ncccc1[C@@H](CC(=O)Nc1cccc(F)c1CC[C@@H]1CN[C@H](COC(=O)NCC(F)(F)F)CO1)c1ccc(F)cc1` [Example 178, {(3S,6R)-6-[2-(2-{[(3S)-3-(2-cyanopyridin-3-yl)-3-(4-fluorophenyl)propanoyl]amino}-6-fluoro-phenyl)ethyl]morpholin-3-yl}methyl (2,2,2-trifluoroethyl)carbamate], in experiment [1], the EC50 came out at 85 nM.
The compound `N[C@H](C(=O)Nc1cccc(F)c1CC[C@@H]1CN[C@H](COC(=O)NC2CCOCC2)CO1)C(c1ccc(F)cc1)c1ccc(F)cc1` [Example 223, 4-fluoro-β-(4-fluorophenyl)-N-(3-fluoro-2-{2-[(2R,5S)-5-{[(tetrahydro-2H-pyran-4-ylcarbamoyl)oxy]methyl}morpholin-2-yl]ethyl}phenyl)-L-phenylalaninamide] returned an EC50 in experiment [1] of 1400 nM.
As for `N[C@H](C(=O)Nc1cccc(F)c1CC[C@@H]1CN[C@H](COC(=O)NCCOc2ccccc2)CO1)C(c1ccc(F)cc1)c1ccc(F)cc1` [Example 222, 4-fluoro-N-(3-fluoro-2-{2-[(2R,5S)-5-({[(2-phenoxyethyl)carbamoyl]oxy}methyl)morpholin-2-yl]ethyl}phenyl)-β-(4-fluorophenyl)-L-phenylalaninamide], it took 53 nM to reach a half-maximal effect in experiment [1] (EC50).
`N[C@H](C(=O)Nc1cccc(F)c1CC[C@@H]1CN[C@H](COC(=O)NCC(F)(F)F)CO1)[C@@H](c1ccc(F)cc1)c1ccc(OC(F)(F)F)cc1` [Example 219, (βR)-β-(4-fluorophenyl)-N-(3-fluoro-2-{2-[(2R,5S)-5-({[(2,2,2-trifluoroethyl)carbamoyl]oxy}methyl)morpholin-2-yl]ethyl}phenyl)-O-(trifluoromethyl)-L-tyrosinamide] displayed an EC50 in experiment [1] of 140 nM.
As for `N#Cc1ccc([C@@H](CC(=O)Nc2cncc(F)c2CC[C@@H]2CN[C@H](COC(=O)NCC(F)(F)F)CO2)c2ccc(F)c(F)c2)cc1` [Example 115, {(3S,6R)-6-[2-(3-{[(3R)-3-(4-Cyanophenyl)-3-(3,4-difluorophenyl)propanoyl]amino}-5-fluoropyridin-4-yl)ethyl]morpholin-3-yl}methyl (2,2,2-trifluoroethyl)carbamate], in experiment [1], the EC50 is 30 nM.
Take `O=C(CC(c1ccc(F)cc1)c1ccc(F)cc1)Nc1cncc(F)c1CC[C@@H]1CN[C@H](COC(=O)NCc2ccc(F)cc2)CO1` [Example 176, {(3S,6R)-6-[2-(3-{[3,3-bis(4-fluoro-phenyl)propanoyl]amino}-5-fluoropyridin-4-yl)ethyl]morpholin-3-yl}methyl (4-fluorobenzyl)carbamate]: the EC50 in experiment [1] worked out at 73 nM.
On the same count and under the same terms, next, `COC(=O)N[C@H](C(=O)Nc1cccc(F)c1CC[C@@H]1CN[C@H](COC(N)=O)CO1)[C@@H](c1ccc(F)cc1)c1cccc(F)c1` [Example 118, (βS)—N-[2-(2-{(2R,5S)-5-[(Carbamoyloxy)methyl]morpholin-2-yl}ethyl)-3-fluorophenyl]-4-fluoro-β-(3-fluorophenyl)-Nα-(methoxycarbonyl)-L-phenylalaninamide]: 17 nM; `CS(=O)(=O)c1ccc([C@@H](CC(=O)Nc2cccc(F)c2CC[C@@H]2CN[C@H](COC(=O)NCC(F)(F)F)CO2)c2cccc(F)c2)cc1` [Example 113, [(3S,6R)-6-{2-[2-Fluoro-6-({(3R)-3-(3-fluorophenyl)-3-[4-(methylsulfonyl)phenyl]propanoyl}amino)phenyl]ethyl}morpholin-3-yl]methyl (2,2,2-trifluoroethyl)carbamate]: 320 nM.

By EC50 is commonly meant the midpoint of the concentration-response curve. Read a low EC50 as higher potency in that assay.
